Reference: patent publication US12364670B2, “Cannabidiol-type cannabinoid compound” (JAZZ PHARMACEUTICALS RESEARCH UK LIMITED, priority 2019, dated 2025)

What was measured:
[1] = tested on: electroshock-induced generalised seizure threshold (MEST) in the mouse; test: Maximal electroshock seizure threshold (MEST) test in the mouse, Example 3; details: for CC50 ± SEM: vehicle CC50 24.3
Method: The efficacy of CBD-C6 was tested in a mouse model of generalised seizure, the maximal electroshock seizure threshold (MEST) test as described in Example 2.
Naïve mice were acclimatised to the procedure room in their home cages for up to 7 days, with food and water available ad libitum.
All animals were weighed at the beginning of the study and randomly assigned to treatment groups based on a mean distribution of body weight across groups.
The first animal within a treatment group was given a shock at the expected or estimated CC50 current. For subsequent animals, the current was lowered or raised depending on the convulsions outcome from the preceding animal.
Data generated from each treatment group were used to calculate the CC50±SEM values for the treatment group.
Vehicle: (5% ethanol, 5% solutol, 90% Saline) was prepared as follows: 1 mL of ethanol, 1 mL of solutol were warmed to 60° C., in 18 mL of saline (1:1:18).
The test compound, CBD-C6 was prepared according to the method described in Example 1. CBD-C6 was administered at 10, 30 and 100 mg/kg (i.p.) in a 1:1:18 ethanol:solutol:0.9% saline formulation.
CBD-C6 effects were also calculated as percentage change in CC50 from the vehicle control group. Significant difference between drug-treated animals and controls were assessed according to Litchfield and Wilcoxon (1949).

[2] = tested on: electroshock-induced tonic hind limb extensor seizure (MEST) in the mouse; test: Maximal electroshock seizure threshold (MEST) test in the mouse, Example 2; details: for CC50 +/- SEM: vehicle CC50 21.0
Method: The efficacy of CBD-C6 was tested in a mouse model of seizure, the maximal electroshock seizure threshold (MEST) test.
The maximal electroshock seizure threshold (MEST) test is widely utilized preclinically to evaluate pro- and anti-convulsant properties of molecules (Loscher et al., 1991).
In the MEST test the ability of a drug to alter the seizure threshold current required to induce hind limb tonic extensor convulsions is measured according to an “up and down” method of shock titration (Kimball et al., 1957). An increase in seizure threshold is indicative of anti-convulsant effect.
Naïve mice were acclimatised to the procedure room in their home cages, with food and water available ad libitum.
Animals were dosed i.p. according to dose group.
The vehicle (10 ml/kg i.p. 60 min pre-treatment time) was 1:1:18 vehicle 5% ethanol, 5% kolliphor EL, 90% saline.
The test compound, CBD-C6 was administered at doses of 10, 30 and 100 mg/kg given at 10 ml/kg i.p. 180 min pre-treatment time.
Mice were individually assessed for the production of a tonic hind limb extensor seizure using a Hugo Sachs Electronik stimulator, which delivered an adjustable constant current (1-300 mA) of 0.1 s duration via corneal electrodes.
The stimulus intensity was varied by an ‘up and down’ method of shock titration.
This procedure continued for all mice within the treatment group. Data generated from treatment group of n=12 was used to calculate the CC50±s.e.m. values according to the method of Kimball et al. (1957).
Induction of seizure is measured as an all-or-nothing effect scored as either present (+) or absent (0) for each animal.
Data was analysed by comparing treated groups with the appropriate vehicle control using Fisher's Exact Probability tests.

[3] = 10 mg/kg i.p., 60 min pre-treatment
[4] = 30 mg/kg i.p., 60 min pre-treatment
[5] = 100 mg/kg i.p., 120 min pre-treatment
[6] = 10 mg/kg i.p., 180 min pre-treatment
[7] = 30 mg/kg i.p., 180 min pre-treatment
[8] = 100 mg/kg i.p., 180 min pre-treatment
[9] = 2.5 mg/kg i.p., 30 min pre-treatment

For `C=C(C)[C@@H]1CCC(C)=C[C@H]1c1c(O)cc(CCCCCC)cc1O` [CBD-C6, Cannabidiol-C6], the “% change from vehicle (CC50)” value [1, 3] was 27%, the “CC50 ± SEM” value [1, 3] was 30.8 ± 1.9 mA and the “% change from vehicle (CC50)” value [1, 4] was 29%. For the same compound, the “CC50 ± SEM” value [1, 4] was 31.5 ± 1.0 mA, the “% change from vehicle (CC50)” value [1, 5] was 239% and the “CC50 ± SEM” value [1, 5] was 82.5 ± 0.7 mA. The “effect on MEST (in words)” value ([1]; 10, 30 and 100 mg/kg i.p., compared to vehicle) was “dose-related increase in MEST”, the “% change from vehicle (CC50)” value [2, 6] was 11% and the “CC50 +/- SEM” value [2, 6] was 23.4 mA. For the same compound, the “% change from vehicle (CC50)” value [2, 7] was 63%, the “CC50 +/- SEM” value [2, 7] was 34.3 mA and the “% change from vehicle (CC50)” value [2, 8] was 376%. The “CC50 +/- SEM” value [2, 8] was greater than 100 mA.

`CN1C(=O)CN=C(c2ccccc2)c2cc(Cl)ccc21` [Diazepam, diazepam, reference compound] was tested, and the “% change from vehicle (CC50)” value [1, 9] was 255% and the “% change from vehicle (CC50)” value [2, 9] was 40%.

For `CCCC(CCC)C(=O)[O-].[Na+]` [Sodium Valproate, sodium valproate, reference compound], the “% change from vehicle (CC50)” value ([1]; 250 mg/kg i.p., 30 min pre-treatment) was 1057%.
